Assay results from the NIST ThermoML archive (doi:10.1016/j.jct.2005.03.015).

Assay: mn = molality of the nth substance listed, in mol/kg
Conditions: 298.15 K, 101 kPa, Liquid

C[C@H](N)C(=O)O [(S)-2-aminopropanoic acid] + O
Conditions	mass density [kg/m3]
m1 = 0.1065	1000.07
m1 = 0.1518	1001.34
m1 = 0.2006	1002.71
m1 = 0.2568	1004.27
m1 = 0.3059	1005.52
m1 = 0.359	1007.03
m1 = 0.4066	1008.35
m1 = 0.4555	1009.54

NC(CO)C(=O)O (stereo not drawn) [(.+-.)-serine] + O
Conditions	mass density [kg/m3]
m1 = 0.02628	998.22
m1 = 0.04948	999.26
m1 = 0.07419	1000.35
m1 = 0.1008	1001.52
m1 = 0.1252	1002.6
m1 = 0.1509	1003.72
m1 = 0.1753	1004.76
m1 = 0.2009	1005.86

C[C@@H](O)[C@H](N)C(=O)O [DL-threonine] + O
Conditions	mass density [kg/m3]
m1 = 0.0246	998.08
m1 = 0.0494	999.12
m1 = 0.07575	1000.22
m1 = 0.1002	1001.23
m1 = 0.1256	1002.28
m1 = 0.1499	1003.28
m1 = 0.1751	1004.31
m1 = 0.2001	1005.33

NCC(=O)NCC(=O)O [glycylglycine] + O
Conditions	mass density [kg/m3]
m1 = 0.02426	998.39
m1 = 0.05026	999.84
m1 = 0.07538	1001.22
m1 = 0.0999	1002.54
m1 = 0.1253	1003.95
m1 = 0.1482	1005.2
m1 = 0.1746	1006.63
m1 = 0.1974	1007.84

N[C@@H](Cc1c[nH]cn1)C(=O)O [L-histidine] + O
Conditions	mass density [kg/m3]
m1 = 0.02223	998.29
m1 = 0.04995	999.84
m1 = 0.07431	1001.19
m1 = 0.099	1002.56
m1 = 0.1232	1003.87
m1 = 0.1428	1004.92
m1 = 0.1834	1007.13
m1 = 0.2013	1008.08

NCC(=O)O [2-aminoacetic acid] + O
Conditions	mass density [kg/m3]
m1 = 0.0988	1000.19
m1 = 0.1509	1001.82
m1 = 0.2033	1003.44
m1 = 0.2463	1004.78
m1 = 0.2996	1006.4
m1 = 0.3513	1007.96
m1 = 0.4037	1009.55
m1 = 0.4497	1010.94
